{"source": "patent US5696112A", "about": "“Fused heterocyclic azepines as vasopressin antagonists” (American Cyanamid Company, priority 1995, dated 1997)", "key": {"[1]": {"molecular_target": "T1, Rat Kidney Medullary V2 Receptors (vasopressin V2) (Rattus norvegicus, UniProt Q00788)", "T1 construct": "Medullary tissues from rat kidneys are dissected out; from tissue; host or cells: rat kidney medulla membranes", "T1 sequence (Q00788 whole entry)": "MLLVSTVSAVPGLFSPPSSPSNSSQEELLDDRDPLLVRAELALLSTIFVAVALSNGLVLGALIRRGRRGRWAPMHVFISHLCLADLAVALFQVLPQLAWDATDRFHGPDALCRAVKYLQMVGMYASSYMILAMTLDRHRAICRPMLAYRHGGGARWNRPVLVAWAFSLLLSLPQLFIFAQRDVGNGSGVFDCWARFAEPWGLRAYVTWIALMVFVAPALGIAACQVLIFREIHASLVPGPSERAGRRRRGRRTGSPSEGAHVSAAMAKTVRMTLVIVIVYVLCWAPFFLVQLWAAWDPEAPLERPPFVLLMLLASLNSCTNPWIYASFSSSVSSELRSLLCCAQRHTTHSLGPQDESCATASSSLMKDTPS", "experiment": "Binding Assay to Rat Kidney Medullary V2 Receptors", "conditions": "rat kidney medullary V2, [3H]Arg8-vasopressin", "how_it_was_run": "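Membranes from rat kidney medulla (200 μg protein) were equilibrated for 120 min on the bench with [3H]arginine8-vasopressin, added as a 0.8 nM solution, in Tris-HCl containing MgCl2, heat-inactivated BSA and protease inhibitors. Compounds were dissolved in 50% DMSO, and 1.0 μM unlabeled ligand gave nonspecific binding. Filtration, scintillation counting and competition analysis gave IC50.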"}, "[2]": {"molecular_target": "T2, Rat Hepatic V1 Receptors (vasopressin V1) (Rattus norvegicus, UniProt P30560)", "T2 construct": "Rat liver plasma membranes expressing the vasopressin V1 receptor subtypes are isolated by sucrose density gradient; from tissue; host or cells: rat liver plasma membranes", "T2 sequence (P30560 whole entry)": "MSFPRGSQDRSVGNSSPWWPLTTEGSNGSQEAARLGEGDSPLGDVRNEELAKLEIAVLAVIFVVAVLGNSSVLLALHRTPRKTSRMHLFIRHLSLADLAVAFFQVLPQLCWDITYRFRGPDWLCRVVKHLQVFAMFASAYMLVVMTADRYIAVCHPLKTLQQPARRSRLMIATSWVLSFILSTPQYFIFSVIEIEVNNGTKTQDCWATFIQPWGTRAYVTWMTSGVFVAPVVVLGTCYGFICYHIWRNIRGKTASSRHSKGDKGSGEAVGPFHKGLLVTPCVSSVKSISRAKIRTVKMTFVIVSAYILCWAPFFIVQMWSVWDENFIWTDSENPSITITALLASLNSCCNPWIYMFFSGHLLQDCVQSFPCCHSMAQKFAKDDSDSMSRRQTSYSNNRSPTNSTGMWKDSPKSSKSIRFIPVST", "experiment": "Binding Assay to Rat Hepatic V1 Receptors", "conditions": "rat hepatic V1, [3H]vasopressin", "description": "Binding Assay to Rat Hepatic V1 Receptors\nRat liver plasma membranes expressing the vasopressin V1 receptor subtypes are isolated by sucrose density gradient according to the method described by Lesko et al., (1973). These membranes are quickly suspended in 50.0 mMTris.HCl buffer, pH 7.4, containing 0.2% bovine serum albumin (BSA) and 0.1 mM phenylmethylsulfonylfluoride (PMSF) and kept frozen at -70° C. until used in subsequent binding experiments. For binding experiments, the following is added to the wells of a ninety-six well format microtiter plate: 100 μl of 100.0 mM Tris.HCl buffer containing 10.0 mM MgCl2, 0.2% heat inactivated BSA and a mixture of protease inhibitors: leupeptin, 1.0 mg %; aprotinin, 1.0 mg %, 1,10-phenanthroline,2.0 mg %; trypsin inhibitor, 10.0 mg % and 0.1 mM PMSF, 20.0 μl of [phenylalanyl-3,4,5-^3 H]vasopressin (S.A. 45.1 Ci/mmole) at 0.8 nM, and the reaction initiated by the addition of 80 μl of tissue membranes containing 20 μg of tissue protein. The plates are kept undisturbed on the bench top at room temperature for 120 min. to reach equilibrium. Nonspecific samples are assayed in the presence of 0.1 μM of the unlabeled antagonist phenylalanylvasopressin, added in 20.0 μl volume to a final incubation volume of 200 μl. Upon completion of binding, the content of each well is filtered off, using a Brandel® cell Harvester (Gaithersburg, Md.). The radioactivity trapped on the filter disk by the ligand-receptor complex is assessed by liquid scintillation counting in a Packard LS Counter, with an efficiency of 65% for tritium. The data are analyzed for IC50 values by the LUNDON-2 program for competition (LUNDON SOFTWARE, OH)."}}, "data": [{"molecule": "O=C(Nc1ccc(C(=O)N2CCCCc3sccc32)cc1)c1cc(Cl)ccc1Cl", "note": "[Example 9, N-[4-[(5,6,7,8-Tetrahydro-4H-thieno[3,2-b]azepin-4-yl)carbonyl]phenyl]2,5-dichlorobenzamide]", "values": [{"measurement": "IC50", "setting": "[1]", "result": 0.034, "unit": "µM"}, {"measurement": "IC50", "setting": "[2]", "result": 0.21, "unit": "µM"}]}, {"molecule": "Cc1c(F)cccc1C(=O)Nc1ccc(C(=O)N2CCCC(=O)c3sccc32)cc1", "note": "[Example 155, N-[4-[(5,6,7,8-Tetrahydro-8-oxo-4H-thieno[3,2-b]azepine-4-yl)carbonyl]phenyl]-3-fluoro-2-methylbenzamide]", "values": [{"measurement": "IC50", "setting": "[1]", "result": 0.25, "unit": "µM"}, {"measurement": "IC50", "setting": "[2]", "result": 7.6, "unit": "µM"}]}, {"molecule": "Cc1ccccc1C(=O)Nc1ccc(C(=O)N2CCCCc3sc(Cl)cc32)cc1", "note": "[Example 96, N-[4-[(2-Chloro-5,6,7,8-tetrahydro-4H-thieno[3,2-b]azepin-4-yl)carbonyl]phenyl]-2-methylbenzamide]", "values": [{"measurement": "IC50", "setting": "[1]", "result": 0.01, "unit": "µM"}, {"measurement": "IC50", "setting": "[2]", "result": 0.088, "unit": "µM"}]}, {"molecule": "O=C(Nc1ccc(C(=O)N2CCCCc3sc(Cl)cc32)cc1)c1ccc(Cl)cc1Cl", "note": "[Example 93, 2,4-Dichloro-N-[4-[(2-chloro-5,6,7,8-tetrahydro-4H-thieno[3,2-b]azepin-4-yl)carbonyl]phenyl]benzamide]", "values": [{"measurement": "IC50", "setting": "[1]", "result": 0.019, "unit": "µM"}, {"measurement": "IC50", "setting": "[2]", "result": 0.23, "unit": "µM"}]}, {"molecule": "Cc1c(F)cccc1C(=O)Nc1ccc(C(=O)N2CCCCc3sc(Cl)cc32)cc1", "note": "[Example 94, N-[4-[(2-Chloro-5,6,7,8-tetrahydro-4H-thieno[3,2-b]azepin-4-yl)carbonyl]phenyl]-3-fluoro-2-methylbenzamide]", "values": [{"measurement": "IC50", "setting": "[1]", "result": 0.01, "unit": "µM"}, {"measurement": "IC50", "setting": "[2]", "result": 0.16, "unit": "µM"}]}, {"molecule": "Cc1ccccc1C(=O)Nc1ccc(C(=O)N2CCCC(=O)c3sccc32)cc1", "note": "[Example 157, N-[4-[(5,6,7,8-Tetrahydro-8-oxo-4H-thieno[3,2-b]azepin-4-yl)carbonyl]-phenyl]-2-methylbenzamide]", "values": [{"measurement": "IC50", "setting": "[1]", "result": 0.25, "unit": "µM"}, {"measurement": "IC50", "setting": "[2]", "result": 3.6, "unit": "µM"}]}, {"molecule": "O=C(Nc1ccc(C(=O)N2CCCC(=O)c3sccc32)cc1)c1ccc(Cl)cc1Cl", "note": "[Example 156, N-[4-[(5,6,7,8-Tetrahydro-8-oxo-4H-thieno[3,2-b]azepin-4-yl)carbonyl]-phenyl]-2,4-dichlorobenzamide]", "values": [{"measurement": "IC50", "setting": "[1]", "result": 0.33, "unit": "µM"}, {"measurement": "IC50", "setting": "[2]", "result": 5.5, "unit": "µM"}]}, {"molecule": "Cc1ccccc1CC(=O)Nc1ccc(C(=O)N2CCCCc3sccc32)cc1", "note": "[Example 13, N-[4-[(5,6,7,8-Tetrahydro-4H-thieno[3,2-b]azepin-4-yl)carbonyl]phenyl]2-methylbenzeneacetamide]", "values": [{"measurement": "IC50", "setting": "[1]", "result": 0.01, "unit": "µM"}, {"measurement": "IC50", "setting": "[2]", "result": 0.014, "unit": "µM"}]}]}
